# Laboratory results: patent US20050148495A1, “Methods and materials including for treating acne” (priority 2003, published 2005)
# Read-outs that look alike come from different tables or passages of the source. Non-standard residues stand in square brackets, D forms with d. Residues, ends and D or L forms follow the SMILES beside them. d1Nal = N[C@H](Cc1cccc2ccccc12)C(=O)O
# Columns and labels:
# Corynebacterium = assay: microbe, parasite or virus in culture; assay type: cell-based
# Protocol: Control tubes containing only water or formulation buffer were prepared for each isolate. Initial growth controls were determined by removing 10 μL from the water control tube and diluting it by 100 fold. From this dilution, 10 μL was used for inoculation and for spreading over the surface onto Laked Blood Agar (LBA) (Anaerobe Systems, Morgan Hill, Calif.) plates. The tubes and plates were incubated in an anaerobic atmosphere at 37° C. for 48 h. […] MBC50 and 90 values represent where 50 and 90%, respectively, of the tested strain's MBC values are equal to or less than the indicated concentration.
# Streptococcus mutans = assay: MIC, panel of human pathogens, standardized NCCLS protocols; assay type: cell-based; details: Streptococcus mutans 25175
# E. coli 07:K1 = assay: Acute peritonitis model (survival); assay type: in vivo, mice; details: 10 mg/kg intraperitoneally; 1.4×10^7 CFU E. coli 07:K1; seven days
# Protocol: (§1) In additional studies in an acute peritonitis model, mice were challenged intraperitoneally with 1.4×10^7 CFU E. coli 07:K1 and treated intraperitoneally with XMP.629 at 1, 3, or 10 mg/kg or saline. Mice were observed twice daily and mortality was recorded for seven days. Statistical comparisons between the treatment groups and saline were performed using a Chi Square test. […] At 10 mg/kg, 87% protection was observed. In additional studies, XMP.629 was safely administered at a dose of 20 mg/kg intravenously.
# [1] = Additional studies: intravenous administration safety; assay type: in vivo; details: intravenously
# Protocol: as §1
# [2] = system: eye of New Zealand White rabbits; assay: Rabbit primary eye irritation test (Draize); assay type: in vivo
# Protocol: XMP.629 was evaluated in a rabbit primary eye irritation test for potential ocular irritant and/or corrosive effects when topically applied to the eye of three New Zealand White rabbits.
# All animals received 0.1 mL of a 2% solution XMP.629 in 10 mM sodium acetate instilled into the right conjunctival sac and left in place for 24 hours. The control eye was untreated. The treated eye was washed out with 100 mL of lukewarm water for one to two minutes at approximately 24 hours post-dose. The treated and control eyes were examined at approximately 1, 24, 48, and 72 hours post-dose and on days 5, 8, and 15 for ocular irritation using the standard Draize scoring system (Draize et al., 1944, supra). Sodium fluorescein and ultraviolet light was used to examine for possible corneal injury.
# [3] = system: guinea pigs, Crl:(HA)BR (Albino Hartley); assay: Guinea pig sensitization (maximization) test; assay type: in vivo
# Protocol: A sensitization (maximization) study was performed to evaluate the potential of XMP.629 to elicit skin sensitization reactions, such as allergic contact dermatitis, in guinea pigs via intradermal injection and topical patch applications. Procedures for conducting dermal studies that determine the potential of substances to induce delayed contact hypersensitivity are well-known and are described, for example, in Magnusson, B. et al., Allergic Contact Dermatitis in the Guinea Pig, Charles C. Thomas Publishing, Springfield, Ill., 1970 and Klecak, G., “Test Methods for Allergic Contact Dermatitis in Animals”, Dermatoxicology, 5th Edition, Taylor & Francis Publishing, Washington D.C., pages 437-459, the disclosures of which are incorporated herein by reference. A total of forty two-month old guinea pigs, twenty male and twenty female, from the strain CrI:(HA)BR(Albino Hartley) were employed for the entire regimen of the sensitization study.
# First, a preliminary range-finding test was conducted to determine the test concentration of XMP.629 to be used in the second test, induction phase intradermal injection and topical patch application tests. The range-finding test was performed (i) intradermally on two guinea pigs (one male and one female) by injecting concentrations of 2, 4, 8, 16, and 20 mg/mL XMP.629; and (ii) topically on three guinea pigs (two males and one female) by administering patches containing concentrations of 5, 10, 15, and 20 mg/mL XMP.629. […] Topical patches were prepared by spreading a thick even layer of 0.4 mL of XMP.629 over a 2×2 cm of Whatman No.3 filter paper. Topical patches were applied to the torso of the guinea pig and covered by an overlapping plastic adhesive tape followed by additional wrapping tape. After a 24 hour exposure period, the patches were removed and the application sites were washed to removed any excess XMP.629 that may be present. […] Intradermal injection sites and topical application sites were evaluated using a sensitization grade rating. […] Each site could attain a maximum possible score of 3, as scored according to the rating listed below: • 0=No reaction • 1=Scattered mild erythema • 2=Moderate and diffuse erythema • 3=Intense erythema and edema
# The second induction phase test was conducted as a two-stage operation with intradermal injections initially being administered followed one week later by exposure to a closed patch. […] Following a period of 24 and 48 hours, evaluations of the injection area were recorded. […] Dermal irritation scores of one or higher were recorded for doses of 8 mg/mL of XMP.629.
# A third, challenge (maximization) test was performed two weeks (day 22) after initiation of the second, induction phase tests. […] Patches were sealed to the flanks for approximately 24 hours before observations were recorded.
# [4] = system: CD [Crl:CD (SD) IGS BR] rats; assay: Rat acute oral toxicity test; assay type: in vivo
# Protocol: XMP.629 was evaluated for acute toxicity following a single dose by oral gavage. The study consisted of three treatment groups of five male and five female CD [CrI:CD (SD) IGS BR] rats which received XMP.629 as a gel at concentrations of 0.1, 0.5, and 1.0% of XMP.629 respectively at a volume of 10 mL/kg. An additional group of five rats per sex served as the control and received control gel at the same volume. All rats were observed twice daily for morbidity, mortality, injury, and availability of food and water. Body weights were measured pretest and at different intervals during the study for all rats; observations for clinical signs were conducted pretest and at approximately 2 and 4 hours following the dose; and daily clinical observations were conducted daily until Day 14. At study termination, gross necropsies were conducted and macroscopic observations were recorded for all animals.
# P. acnes = details: each strain: UPC686, ATCC 6919 intermediate-erythromycin, UP2022
compound,measurement,setting,value
"CC(C)C[C@@H](NC(=O)[C@H](N)CCCCN)C(=O)N[C@H](Cc1ccccc1)C(=O)N[C@H](CCCNC(=N)N)C(=O)N[C@H](Cc1cccc2ccccc12)C(=O)N[C@H](CCC(N)=O)C(=O)N[C@H](C)C(=O)N[C@H](CCCCN)C(=O)N[C@H](Cc1cccc2ccccc12)C(N)=O [XMP.629, NH2-lys-leu-phe-arg-(3-(1-naphthyl)-ala)-gln-ala-lys-(3-(1-naphthyl)-ala)-CONH2] (H-[dK][dL][dF][dR][d1Nal][dQ][dA][dK][d1Nal]-NH2)","MIC90, XMP.629 data reported as MBC values",Corynebacterium,0.25 µg/mL
same,"MIC90, XMP.629 data reported as MBC values",Corynebacterium; in FB (formulation buffer),<0.25 µg/mL
same,Minimum Inhibitory Concentrations,Streptococcus mutans,≦1 μg/mL
same,protection (survival),E. coli 07:K1,87%
same,dose safely administered,[1],20 mg/kg
same,"ocular irritation, overall",[2]; 2% XMP.629 in 10 mM sodium acetate solution,mildly irritating
same,corneal opacity,"[2]; 2% solution in 10 mM sodium acetate, any time point",no effects on corneal opacity
same,"iris, average scores","[2]; 2% solution, 48 hours post-instillation",less than 1
same,"skin sensitization, overall","[3]; 10 mM sodium acetate solution, topical patch challenge",weak skin sensitizing response
same,Dermal irritation scores,[3]; doses of 8 mg/mL,one or higher
same,highest non-irritating dose,[3]; induction phase tests,4 mg/mL
same,challenge phase score,[3]; topical patch 4 mg/mL,did not score higher than one
same,clinical observation,"[4]; 1.0% XMP.629, four hours after administration, four males and one female, resolved by Day 2",Decreased activity
same,clinical signs,[4]; concentrations of 0.1 or 0.5% XMP.629,No clinical signs of systemic toxicity
same,minimum lethal dose,"[4]; single oral gavage of gel, 10 mL/kg (10 mg/mL)",> 1 % XMP.629
same,Minimum Inhibitory Concentrations,Staphylococcus aureus; Staphylococcus aureus 6258,2.00 µg/mL
same,Minimum Inhibitory Concentrations,Staphylococcus aureus; Staphylococcus aureus 11371,2.00 µg/mL
same,Minimum Inhibitory Concentrations,Staphylococcus aureus; Staphylococcus aureus 12598,2.00 µg/mL
same,Minimum Inhibitory Concentrations,Staphylococcus aureus; Staphylococcus aureus 19636,2.00 µg/mL
same,Minimum Inhibitory Concentrations,Staphylococcus aureus; Staphylococcus aureus BAA-38 (MRSA),2.00 µg/mL
same,MBC,P. acnes,1 µg/mL
